# Experiments:
# p38 = assay: Western blot of p38 phosphorylation in THP-1 cells; format: cell-based, human; settings: THP-1, 50 μM apigenin, after 3 h
# Experimental: A. THP-1 cells were treated with 50 μM apigenin for various lengths of time. Lysates were separated by SDS-PAGE, transferred and analyzed by immunoblots with anti-phospho-p38 (pp 38) and anti-total-p38 antibodies. B. THP-1 cells were treated for 6 hr with 50 μM apigenin alone (lane 2), treated with the apigenin diluent (lane 1), pretreatred with 10 or 25 μM SB203580 for 1 hr prior to the addition of apigenin (lanes 3 and 4) or with the SB203580 inhibitor alone (lanes 5 and 6).
# Extracts from 3×10^6 cells were prepared by incubating cells for 30 min on ice in lysis buffer (50 mM Tris, 10 mM EDTA 0.5% NP-40, 10 mM Na-glycerophosphate, 5 mM Na-pyrophosphate, 50 mM NaF, 1 mM orthovanadate, 1 mM DTT, 0.1 mM PMSF, 2 μg/ml of protease inhibitors: chymostatin, pepstatin, antipain, and leupeptin). Cell lysates were centrifuged (14,000×g for 10 min at 4° C.) and the supernatants were stored for at −70° C. for future analysis. Equal amounts of protein were loaded and separated by SDS-PAGE, transferred onto nitrocellulose membranes and probed with antibodies of interest followed by horseradish peroxidase conjugated secondary antibody and visualized by enhanced chemiluminescence (Amersham, Arlington Heights, Ill.). […]
# IL-1β = IL-1β release from LPS-treated monocytes (sandwich ELISA); format: cell-based; settings: LPS stimulated monocytes
# Experimental: Effect of apigenin on IL-1β release. IL-1β released was determined by sandwich ELISA in supernatants of freshly isolated monocytes, or monocytes cultured for 18 h left untreated, treated with 10 ng/ml of LPS or A with different doses of apigenin. B. LPS and different doses of apigenin added at the same time. C. LPS added 1 h prior to the addition of different doses of apigenin. Values represent means ±SEM (N=5, * P<0.05, compared to LPS alone)
# Akt = assay: Western blot of Akt phosphorylation and total Akt in THP-1 cells; format: cell-based, human; settings: THP-1, 50 μM apigenin
# Experimental: FIG. 5. Apigenin affects Akt phosphorylation. THP-1 cells were treated with 50 μM apigenin for different lengths of time. Lysates were separated by SDS-PAGE, transferred and immunoblotted with anti-phospho-Akt (pSer 473), anti-phospho-Akt (pThr 308), total Akt, and â-tubulin antibodies.
# FIG. 6. Apigenin induces the activation of p38 and inactivation of Akt. A. THP-1 cells were treated with 50 μM apigenin for various lengths of time. Lysates were separated by SDS-PAGE, transferred and analyzed by immunoblots with anti-phospho-p38 (pp 38) and anti-total-p38 antibodies. B. […] Lysates were analyzed by immunoblotting with anti-phospho-Akt (pSer 473), anti-phospho-p38 (p-p38), and anti-total-p38 antibodies.
# Extracts from 3×10^6 cells were prepared by incubating cells for 30 min on ice in lysis buffer (50 mM Tris, 10 mM EDTA 0.5% NP-40, 10 mM Na-glycerophosphate, 5 mM Na-pyrophosphate, 50 mM NaF, 1 mM orthovanadate, 1 mM DTT, 0.1 mM PMSF, 2 μg/ml of protease inhibitors: chymostatin, pepstatin, antipain, and leupeptin). Cell lysates were centrifuged (14,000×g for 10 min at 4° C.) and the supernatants were stored for at −70° C. for future analysis. Equal amounts of protein were loaded and separated by SDS-PAGE, transferred onto nitrocellulose membranes and probed with antibodies of interest followed by horseradish peroxidase conjugated secondary antibody and visualized by enhanced chemiluminescence (Amersham, Arlington Heights, Ill.). Phospho-Ser473-Akt, phospho-Thr308-Alt, total AKT, phospho-p38 and total p38 antibodies were obtained from Cell Signaling (Boston, Mass.). â-tubulin antibody was obtained from Upstate (Charlottesville, Va.).
# caspase-3 [1] = assay: Caspase-3 activity, DEVD-AFC assay, THP-1 lysates; format: cell-based, human; settings: THP-1, 50 μM apigenin
# Experimental: FIG. 3. Apigenin induces caspase activation in monocytic leukemia. THP-1 (top) and U937 (bottom) leukemia cells were treated for various lengths of time with 50 μM apigenin or DMSO (NT). (A and C) Caspase-9 activity was determined by the LEHDAFC assay. (B and D) Caspase-3 activity was determined by the DEVD-AFC assay. Data represents means ±SEM (N=3).
# FIG. 4. Caspase-3 activation is required for apigenin-induced apoptosis. THP-1 cells were treated for 12 h with 50 μM apigenin alone or pretreated with 20 μM DEVD-FMK for 1 h prior to the addition of apigenin. (A) Cells were then stained with calcein AM and 24 PI and the percentage of apoptotic cells was determined. (B) Lysates from cells treated as described above were used to determined caspase-3 activity by the DEVD-AFC assay. All data represents means ±SEM (N=5).
# FIG. 7. Apigenin induced p38 activation is not required for apoptosis. A. Cells were pretreated for 1 h prior to addition of 50 μM apigenin or DMSO (−) with 10 or 25 μM concentrations of SB203580 or DMSO (−) for 12 h. The percentage of apoptotic cells was determined by calcein AM with PI stained cells. Data represents means ±SEM (N=5 p>0.05). B. Lysates from the same treatments were used to determined caspase-3 activity by the DEVD-AFC assay. Data represents means ±SEM (N=5 p>0.05).
# For measurements of caspase activity, cells were plated at a density of 1.5×10^6 cells/well. After treatment, cells extracts were prepared as previously described (Doseff, A. I., Baker J. H., Bourgeois T. A. and Wewers M. D. (2003) Interleukin-4-induced zpoptosis entails caspase activation and suppression of extracellular signal-regulated kinase phosphorylation. Am. J. Resp. Cell Mol. Biol., 29, 367-374). […] Levels of released AFC were measured using Cytofluor 400 fluorimeter (Filters: excitation 400 nm, emission 508 nm; Perspective Co., Framingham, Mass.).
# caspase-3 [2] = assay: Caspase-3 activity in LPS-stimulated monocytes (DEVD-AFC); format: cell-based
# Experimental: For measurements of caspase activity, cells were plated at a density of 1.5×10^6 cells/well. After treatment, cells extracts were prepared as previously described (Doseff, A. I., Baker J. H., Bourgeois T. A. and Wewers M. D. (2003) Interleukin-4-induced zpoptosis entails caspase activation and suppression of extracellular signal-regulated kinase phosphorylation. Am. J. Resp. Cell Mol. Biol., 29, 367-374). Protein extracts were incubated with 20 μM DEVD-AFC to determine caspase-3 activity or LEHD-AFC to determine caspase-9 activity (Enzyme Systems Products, Livermore, Calif.) in a cytobuffer as previously described (Doseff, A. I., Baker J. H., Bourgeois T. A. and Wewers M. D. (2003) Interleukin-4-induced zpoptosis entails caspase activation and suppression of extracellular signal-regulated kinase phosphorylation. Am. J. Resp. Cell Mol. Biol., 29, 367-374). Levels of released AFC were measured using Cytofluor 400 fluorimeter (Filters: excitation 400 nm, emission 508 nm; Perspective Co., Framingham, Mass.).
# Apigenin reactivates caspase-3 on LPS-stimulated monocytes. Caspase-3 activity was determined by the DEVD-AFC assay in monocytes freshly isolated (Fresh) or monocytes cultured for 18 h left untreated, treated with 10 ng/m 1 LPS or (A) with different doses of apigenin alone, (B) with LPS and different doses of apigenin or (C) with LPS 1 h prior to the addition of apigenin. […]
# U937 cells = assay: Cell survival and apoptosis by calcein AM/PI staining; format: cell-based, human; settings: U937, 50 μM
# Experimental: FIG. 2. Apigenin induces cell death in monocytic leukemia cells. THP-1 and U937 leukemia cells were treated for various lengths of time with 50 μM apigenin or left untreated (NT) and stained with calcein AM and PI as described in Material and Methods to evaluate the percentage of cell survival. (A) THP cells after 12 h cells treated with 50 μM apigenin or with DMSO (NT). (B) The percentage of cell survival represented by means ±SEM (N=3).
# To investigate apoptosis, cells were plated at a density of 1×10^6 cells/well. After treatment, cells were collected and washed in PBS. Cells were then incubated in RPMI (no phenol red) and 1 μg/ml calcein AM for 30 min and 5×10−2 ng/ml propidium iodide (PI) for 5 min. Cells were washed twice and resuspended in PBS. Cells were viewed using a fluorescent microscope (Olympus, Melville, N.Y.). At least 200 cells were counted. Cells calcein AM positive (green) in the absence of PI (red) were considered alive while cells undergoing apoptosis are green with red. Number of green cells or green with red cells was counted over total number of cells (green alone and green with red) to express cell survival or apoptotic cell percentage respectively.
compound,measurement,setting,value
O=c1cc(-c2ccc(O)cc2)oc2cc(O)cc(O)c12 [apigenin],phosphorylation of p38,p38,increase
same,release of IL-1β,IL-1β,inhibits
same,total Akt protein levels,Akt; after six hours,dramatically decreased
same,Akt pSer473 phosphorylation,Akt; during the first hour,rapid decrease
same,Akt pThr308 phosphorylation,Akt; first six hours,not significantly affected
same,"caspase-3 activity, time course",caspase-3 [1],"detected after 6 h and similarly to caspase-9, the activity was sustained at 9 h, but decreased after 12 h"
same,caspase-3 activation,caspase-3 [2],significantly increases
same,decrease in cell survival,U937 cells; 12 h,10%
same,decrease in cell survival,U937 cells; 24 h,50%

# Reference: US20080200538A1, “Inhibition of Monocyte Survival, Differentiation, or Proliferation” (The Ohio State University Research Foundation, priority 2005, published 2008)
